Tests used:
[1] = tested on: 253G1 hiPS cell-derived neurons; assay: MEA measurement of drug response (number of spikes) of 253G1 hiPS cell-derived neurons; assay type: cell-based, human; details: 4-AP final concentration 100 μM
Experimental: iPS cell-derived neurons (253G1 hiPS cell-derived neuron or XCL-1 NEURONS (XCell Science, catalog number XN-001-1V)) were seeded on the oriented PLGA fiber sheet as a cell scaffold at 13×10^5 cells/cm^2. 253G1 hiPS cell-derived neurons were cultured in N2B27 medium with or without 20% ACM, and the XCL-1 NEURONS are cultured in BrainPhys (registered trademark) Neuronal Medium (05792, STEMCELL TECHNOLOGIES) with or without 20% ACM in an incubator at 5% CO2 and 37° C. for 4 or 6 weeks. The fiber sheet was placed on an MEA probe (MED64 system, Alpha MED Scientific Inc.), and made the cells contact with the electrodes of MEA probe to measure neural activity (spikes). As a control, neurons were similarly seeded directly on a probe (electrodes) based on a conventional method, and cultured in an incubator at 5% CO2 and 37° C. for 4 or 6 weeks. The obtained results were compared with those given by a conventional method (direct seeding to a probe). A larger number of spikes were detected in 253G1 hiPS cell-derived neurons on the fiber sheet at 4-week culture (FIG. 7a). […] In the measurement system, 4-aminopyridine (4-AP), known to have a function of inhibiting various potassium channels in neurons and maintaining neuronal action potential, was added to the neurons cultured for 4 weeks at a final concentration of 100 μM, and then the spikes were measured. As a result, the number of spikes was increased both in the control group and in the fiber sheet group by the addition of 4-aminopyridine, and appropriate drug response was also confirmed (FIG. 7a).

[2] = tested on: iPS cell-derived neurons XCL-1 NEURONS; assay: MEA measurement of drug response (spikes, bursts, synchronous bursts) of XCL-1 NEURONS on oriented PLGA fiber sheet; assay type: cell-based, human; details: 4-AP final concentration 100 μM
Experimental: iPS cell-derived neurons (253G1 hiPS cell-derived neuron or XCL-1 NEURONS (XCell Science, catalog number XN-001-1V)) were seeded on the oriented PLGA fiber sheet as a cell scaffold at 13×10^5 cells/cm^2. 253G1 hiPS cell-derived neurons were cultured in N2B27 medium with or without 20% ACM, and the XCL-1 NEURONS are cultured in BrainPhys (registered trademark) Neuronal Medium (05792, STEMCELL TECHNOLOGIES) with or without 20% ACM in an incubator at 5% CO2 and 37° C. for 4 or 6 weeks. The fiber sheet was placed on an MEA probe (MED64 system, Alpha MED Scientific Inc.), and made the cells contact with the electrodes of MEA probe to measure neural activity (spikes). As a control, neurons were similarly seeded directly on a probe (electrodes) based on a conventional method, and cultured in an incubator at 5% CO2 and 37° C. for 4 or 6 weeks. The obtained results were compared with those given by a conventional method (direct seeding to a probe). A larger number of spikes were detected in 253G1 hiPS cell-derived neurons on the fiber sheet at 4-week culture (FIG. 7a). […] In the measurement system, 4-aminopyridine (4-AP), known to have a function of inhibiting various potassium channels in neurons and maintaining neuronal action potential, was added to the neurons cultured for 4 weeks at a final concentration of 100 μM, and then the spikes were measured. As a result, the number of spikes was increased both in the control group and in the fiber sheet group by the addition of 4-aminopyridine, and appropriate drug response was also confirmed (FIG. 7a). […] The cells were cultured in BrainPhys (registered trademark) Neuronal Medium (05792, STEMCELL TECHNOLOGIES) containing 20% ACM in an incubator at 5% CO2 and 37° C. for 2, 4, and 6 weeks. The obtained cell sheet (nerve cell device) was placed on an MEA probe (MED64 system, Alpha MED Scientific Inc.) and made the cells contact with the electrodes of MEA probe to measure neural activity (spikes and bursts). In the measurement system, 4-aminopyridine (4-AP), known to maintain a neural action potential was added at a final concentration of 100 μM to examine the drug response of neurons. MED 64 Burstscope (Alpha MED Scientific Inc.) was used for analyzing neural activity. About the cell sheet obtained by culturing for 4 weeks, the result of analyzing the number of spikes is shown in FIG. 8a, and the result of analyzing the number of synchronous bursts is shown in FIG. 8b. […] Furthermore, the result of analyzing neural activity by raster plots for a cell sheet obtained by culturing for 6 weeks is shown in FIG. 8c.

[3] = seeded at 24×10^5 cells/cm^2 on oriented PLGA fiber sheet, 20% ACM, cultured 4 weeks

Nc1ccncc1 [4-aminopyridine]
increase in the number of spikes ([1]; control group cultured directly on the MEA probe, 4 weeks): 156% | increase in the number of spikes ([1]; fiber sheet group cultured in medium with 20% ACM, 4 weeks): 194% | increase in the number of spikes ([1]; neurons on oriented PLGA fiber sheet (fiber sheet group), cultured 4 weeks): 167% | increase in the number of spikes [2, 3]: 499% | increase in the number of synchronous bursts [2, 3]: 375% | number of spikes and synchronous bursts (raster plots) ([2]; seeded at 24×10^5 cells/cm^2 on oriented PLGA fiber sheet, 20% ACM, cultured 6 weeks): remarkable increase | increase in the number of bursts ([2]; seeded on fiber sheet at 12×10^5 cells/cm^2, cultured 6 weeks in medium with ACM): 2.6 fold

From patent US11543404B2, “Nerve cell device and method for evaluating neural activity” (Stem Cell & Device Laboratory, Inc., priority 2017, dated 2023)
